The subject of the experiment is PC-3 cells. The experiment is described as follows: Wound healing (scratch) assay. Type of experiment: cell-based. The note with it: PC3, 50 uM, 48 h. The method, then:
PC-3 cells were treated with 1, 10, 50 μM C3 or DMSO control after scratch formation and images were recorded using a brightfield microscope as described in the methods. […] Brightfield images were quantified using the t-scratch program and represented as % scratch closure after 48 hours of migration compared to a 0 hour control (n=9, mean±SEM). A one-way ANOVA test was used for statistical analysis (p<0.05).
Wound Healing Assay. PC-3 cells were seeded in 6 well plates at 3×10^5 cells per well in complete media until the cells reached confluency. Three horizontal and three vertical scratches were made in the confluent monolayers using a standard 200 μL pipette tip and cellular debris were removed by washing with 1×DPBS three times. 1×RPMI-1640 supplemented with C3 or DMSO was added and cells were incubated for 48 hours as described previously. […] Images were uploaded and analyzed for scratch geometry using the tscratch program (96). First, global thresholding was performed, then individual images were manually inspected for single image threshold adjustment and scratch geometries were quantified. […] The samples were analyzed using the Dionex UltiMate 3000 RSLC Nano System coupled to the Q Exactive™ HF Hybrid Quadrupole-Orbitrap MS (Thermo Scientific). […] Label free quantitation (LFQ) was performed using a minimum ratio count of 2 with fast LFQ. […]

Turning to `O=C(c1cc(F)cc2c1OCOC2)N1CCN(C2c3ccccc3-c3ccccc32)CC1` [Compound C3, [4-(9h-fluoren-9-yl)piperazino](6-fluoro-4h-1,3-benzodioxin-8-yl)methanone], the “prevention of wound closure” value was approximately 70%.

The values above are taken from US11022604B2, “Dock derived compound against laminin receptor (37 LR) and uses thereof” (Purdue Research Foundation, priority 2017, dated 2021).
